Test results published in patent US20200216432A1, “SULFONAMIDE DERIVATIVES AS STAT3 INHIBITORS FOR THE TREATMENT OF PROLIFERATIVE DISEASES” (King's College London, priority 2017, published 2020).

Tests used:
[1] = molecular target: unphosphorylated STAT3 monomer (uSTAT3) SH2 domain (Homo sapiens, UniProt P40763); assay: Fluorescence polarisation assay for the inhibition of STAT3 dimerisation; type: binding; settings: 350 nM uSTAT3, 10 nM FAM-pYLPQTV, 100 μM ligand; average of triplicate
Excerpt: Fluorescence Polarisation Assay for the Inhibition of STAT3 Dimerisation
The compounds were subjected to an in vitro fluorescent polarisation (FP)-based primary PPI binding screen to assess their ability to inhibit STAT3 dimerisation by interacting with the SH2 domain. In this FP assay, the unphosphorylated STAT3 monomer (uSTAT3) and a surrogate peptide FAM-pYLPQTV were used to form a ‘pseudo-dimer’. The assay is based on the concept that the compounds were expected to displace the surrogate peptide from the uSTAT3 resulting in a fluorescent read out.
Specifically, for the FP assay, a black (CORNING™) 96 well plate was thoroughly washed with distilled water and allowed to dry. A 100 nM FAM-pYLPQTV working solution was prepared from 10 μM FAM-pYLPQTV stock solution (in DMSO) using PBS pH 7.4 Buffer. 10 μl FAM-pYLPQTV was added to 350 nM uSTAT3 protein, the final concentration of protein in each well, in 90 μl PBS buffer pH 7.4. The MP value of the surrogate dimer complex was measured using a fluorescent plate reader (Envision™, Perkin Elmer™, USA), which provided the base MP value. The inhibitor solution was then added to the well and the assay plate was placed on a shaker for 5 minutes. The MP value for each well was then measured again. A shift in fluorescent values was observed due to displacement of the fluorescently-labelled surrogate peptide by the inhibitors, and the average inhibition for each inhibitor could be calculated as described below:
Base MP value (X) for each well=MP value of Protein and Probe (350 nm STAT3+10 nM FAM-pYLPQTV)−MP value of free FAM-pYLPQTV
Inhibitor MP value (Y) for each well=MP value of Protein+Probe+Inhibitor (350 nm uSTAT3+10 nM FAM-pYLPQTV+2 μL Inhibitor)−MP value of free FAM-pYLPQTV with 2 μL DMSO
% inhibition by any ligand/peptide=(X−Y)/X*100
For comparison purpose, the % inhibition produced by 100 μM pYLKTKF was considered to be 100%, and the inhibition produced by different ligands was reported as relative to 100 μM pYLKTKF.
% Inhibition produced by 100 μM pYLKTKF=A
% Inhibition produced by 100 μM Ligand=B
Relative inhibition (%)=B/A*100
The experiment was carried out in triplicate, and average values were taken as the measure of PPI inhibition.

[2] = tested on: MDA-MB-231 breast (STAT3-dependent) cancer cell line; assay: MTT cell viability assay, MDA-MB-231; type: cell-based, human; settings: for IC50: Homo sapiens, MDA-MB-231, 48 h, MTT, 48 hours exposure (table title); for Selectivity ratio: STAT3-null A4 versus STAT3-dependent MDA-MB-231
Excerpt: (§1) MTT Cell viability assay with both MDA-MB-231 breast (STAT3-dependent) and A4 (STAT3-null) cancer cell lines.
(§2) After observing significant STAT3 dimerisation inhibitory activity in the preliminary FP assay, the target ligand and related fragments were progressed to an MTT cytotoxicity assay to evaluate in a STAT3-dependent tumour cell line (MDA MB 231, breast cancer) and a STAT3 null A4 cell line. It was anticipated that the compounds would show selective toxicity towards the STAT3-dependent MDA MB 231 cell line and would have lost activity in the STAT3 null A4 cell line if the mechanism of action was STAT3-mediated.
(§3) For each cell line, a total of 10,000 cells were seeded for 24 hours before addition of the inhibitors. The cells were grown in normal cell culture conditions at 37° C. under a 5% CO2 humidified atmosphere using an appropriate medium. The cell count was adjusted to 10^5 cells/ml, and 5,000-20,000 cells were added per well depending on the cell line. The cells were then incubated for 24 hours, and 1 μl aliquots of the inhibitors were added to the wells in triplicate. […] Absorbance was quantified by spectrophotometry at A=570 nm (Envision™ Plate Reader, PerkinElmer™, USA). IC50 values were calculated by a dose-response analysis using the Prism GraphPad Prism® software package.

[3] = tested on: A4 (STAT3-null) cancer cell line; assay: MTT cell viability assay, A4; type: cell-based; settings: exposure (table title)
Excerpt: as §1, §2, §3

Chain of unphosphorylated STAT3 monomer (uSTAT3) SH2 domain (P40763 whole entry, the tested form may be a part): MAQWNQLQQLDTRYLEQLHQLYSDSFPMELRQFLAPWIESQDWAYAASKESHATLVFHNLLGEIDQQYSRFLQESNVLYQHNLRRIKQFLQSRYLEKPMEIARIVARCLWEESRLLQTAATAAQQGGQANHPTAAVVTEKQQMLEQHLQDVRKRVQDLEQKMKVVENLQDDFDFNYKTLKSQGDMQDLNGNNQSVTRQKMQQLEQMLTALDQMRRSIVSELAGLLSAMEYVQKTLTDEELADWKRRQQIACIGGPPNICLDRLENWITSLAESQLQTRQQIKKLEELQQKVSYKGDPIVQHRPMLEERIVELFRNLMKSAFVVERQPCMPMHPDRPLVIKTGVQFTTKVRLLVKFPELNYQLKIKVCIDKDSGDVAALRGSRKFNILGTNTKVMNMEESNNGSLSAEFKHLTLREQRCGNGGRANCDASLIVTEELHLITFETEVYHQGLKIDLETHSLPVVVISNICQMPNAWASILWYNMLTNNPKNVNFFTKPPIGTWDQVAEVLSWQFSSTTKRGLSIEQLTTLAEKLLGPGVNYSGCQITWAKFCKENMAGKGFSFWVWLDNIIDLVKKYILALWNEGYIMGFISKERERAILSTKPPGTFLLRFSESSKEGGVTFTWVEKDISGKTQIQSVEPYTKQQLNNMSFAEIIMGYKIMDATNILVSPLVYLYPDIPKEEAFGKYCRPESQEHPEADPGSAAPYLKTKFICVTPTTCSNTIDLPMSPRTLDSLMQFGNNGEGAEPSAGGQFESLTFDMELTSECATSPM

Row | SMILES | inhibition at 100 µM [1] | IC50 [2] | Selectivity ratio [2] | IC50 [3]
1 | COC(=O)c1ccc(N(C)S(=O)(=O)c2cc(C(=O)Nc3ccc(OCCN4CCOCC4)cc3)sc2-c2ccnc(N3CCN(C)CC3)c2)cc1 [Compound 13, methyl 4-((N-methyl-2-(2-(4-methylpiperazin-1-yl)pyridin-4-yl)-5-((4-(2-morpholinoethoxy)phenyl)carbamoyl)thiophene)-3-sulfonamido)benzoate] | 56.2% | 1.86 µM | 40.01 | 74.7 µM
2 | COC(=O)c1ccc(N(C)S(=O)(=O)c2cc(C(=O)Nc3ccc(N4CCCCC4)cc3)sc2Br)cc1 [Compound 21, methyl 4-((2-bromo-N-methyl-5-((4-(piperidin-1-yl)phenyl)carbamoyl)thiophene)-3-sulfonamido)benzoate] | 22.7% | 23.5 µM | 2.75 | 64.7 µM
3 | COC(=O)c1ccc(N(C)S(=O)(=O)c2cc(C(=O)Nc3ccc(N4CCOCC4)nc3)sc2Br)cc1 [Compound 30, methyl 4-((2-bromo-N-methyl-5-((6-morpholinopyridin-3-yl)carbamoyl)thiophene)-3-sulfonamido)benzoate] | 19.5% | 24.6 µM | 3.34 | 82.3 µM
4 | C[C@@H]1CC(=O)c2c(ccc3c2C(=O)c2cccc(O)c2C3=O)C1 [STA-21, reference compound] | 32.3% | 18.7 µM | 3.5 | 65.5 µM
5 | COC(=O)c1ccc(NC(=O)c2cc(S(=O)(=O)N(C)c3ccc(C(=O)OC)cc3)c(Br)s2)cc1 [Compound 27, methyl 4-(5-bromo-4-(N-(4-(methoxycarbonyl)phenyl)-N-methylsulfamoyl)thiophene-2-carboxamido)benzoate] | 20.3% | 8.7 µM | 6.70 | 58.3 µM
6 | COC(=O)c1ccc(N(C)S(=O)(=O)c2cc(C(=O)NCc3ccc(CN4CCCCC4)cc3)sc2Br)cc1 [Compound 33, methyl 4-((2-bromo-N-methyl-5-((4-(piperidin-1-ylmethyl)benzyl)carbamoyl)thiophene)-3-sulfonamido)benzoate] | 42.3% | 4.45 µM | 21.16 | 94.2 µM
7 | COC(=O)c1ccc(N(C)S(=O)(=O)c2cc(C(=O)NCc3ccc(CN4CCOCC4)cc3)sc2Br)cc1 [Compound 31, methyl 4-((2-bromo-N-methyl-5-((4-(morpholinomethyl)benzyl)carbamoyl)thiophene)-3-sulfonamido)benzoate] | 27.3% | 32.5 µM | 0.76 | 24.7 µM
8 | COC(=O)c1ccc(N(C)S(=O)(=O)c2cc(C(=O)NCc3ccc(CN4CCCCC4)cc3)sc2-c2ccc(C#N)cc2)cc1 [Compound 8, methyl 4-((2-(4-cyanophenyl)-N-methyl-5-((4-(piperidin-1-ylmethyl)benzyl)carbamoyl)thiophene)-3-sulfonamido)benzoate] | 36.4% | 12.4 µM | 2.76 | 34.3 µM
9 | COC(=O)c1ccc(N(C)S(=O)(=O)c2cc(C(=O)Nc3cccc(N4CCCCC4)c3)sc2-c2ccc(N3CCCCC3)cc2)cc1 [Compound 19, methyl 4-((N-methyl-2-(4-(piperidin-1-yl)phenyl)-5-((3-(piperidin-1-yl)phenyl)carbamoyl)thiophene)-3-sulfonamido)benzoate] | 43.7% | 3.2 µM | 10.81 | 34.6 µM
10 | COC(=O)c1ccc(N(C)S(=O)(=O)c2cc(C(=O)Nc3ccc(N4CCCCC4)cc3)sc2-c2ccc(N3CCCCC3)cc2)cc1 [Compound 18, methyl 4-((N-methyl-2-(4-(piperidin-1-yl)phenyl)-5-((4-(piperidin-1-yl)phenyl)carbamoyl)thiophene)-3-sulfonamido)benzoate] | 45.8% | 3.5 µM | 12.94 | 45.3 µM
11 | COC(=O)c1ccc(N(C)S(=O)(=O)c2cc(C(=O)Nc3ccc(OCCN4CCOCC4)cc3)sc2-c2ccc(N3CCOCC3)cc2)cc1 [Compound 9, methyl 4-((N-methyl-5-((4-(2-morpholinoethoxy)phenyl)carbamoyl)-2-(4-morpholinophenyl)thiophene)-3-sulfonamido)benzoate] | 54.1% | 2.88 µM | 31.21 | 89.9 µM
12 | COC(=O)c1ccc(N(C)S(=O)(=O)c2cc(C(=O)Nc3ccc(OCCN4CCOCC4)cc3)sc2-c2ccc(C#N)cc2)cc1 [Compound 16, methyl 4-((2-(4-cyanophenyl)-N-methyl-5-((4-(2-morpholinoethoxy)phenyl)carbamoyl)thiophene)-3-sulfonamido)benzoate] | 47.9% | 1.1 µM | 32.36 | 35.6 µM
13 | COC(=O)c1ccc(N(C)S(=O)(=O)c2cc(C(=O)Nc3ccc4c(ccn4C)c3)sc2Br)cc1 [Compound 36, methyl 4-((2-bromo-N-methyl-5-((1-methyl-1H-indol-5-yl)carbamoyl)thiophene)-3-sulfonamido)benzoate] | 29.1% | 7.8 µM | 5.80 | 45.3 µM
14 | COC(=O)c1ccc(N(C)S(=O)(=O)c2cc(C(=O)Nc3ccc(Cc4nc5cc(C)ccc5[nH]4)cc3)sc2Br)cc1 [Compound 34, methyl 4-((2-bromo-N-methyl-5-((4-((5-methyl-1H-benzo[d]imidazol-2-yl)methyl)phenyl)carbamoyl)thiophene)-3-sulfonamido)benzoate] | 35.4% | 7.32 µM | 8.93 | 65.4 µM
15 | COC(=O)c1ccc(N(C)S(=O)(=O)c2cc(C(=O)Nc3ccc(CN4CCOCC4)cc3)sc2Br)cc1 [Compound 23, methyl 4-((2-bromo-N-methyl-5-((4-(morpholinomethyl)phenyl)carbamoyl)thiophene)-3-sulfonamido)benzoate] | 31.3% | 12.5 µM | 4.34 | 54.3 µM
16 | COC(=O)c1ccc(N(C)S(=O)(=O)c2cc(C(=O)NCc3ccc(CN4CCCCC4)cc3)sc2-c2ccc(N3CCOCC3)cc2)cc1 [Compound 1, methyl 4-((N-methyl-2-(4-morpholinophenyl)-5-((4-(piperidin-1-ylmethyl)benzyl)carbamoyl)thiophene)-3-sulfonamido)benzoate] | 59.4% | 2.68 µM | 28.13 | 75.4 µM
17 | COC(=O)c1ccc(N(C)S(=O)(=O)c2cc(C(=O)NCc3ccc(N4CCCCC4)cc3)sc2Br)cc1 [Compound 26, methyl 4-((2-bromo-N-methyl-5-((4-(piperidin-1-yl)benzyl)carbamoyl)thiophene)-3-sulfonamido)benzoate] | 8.24% | 14.5 µM | 1.77 | 25.8 µM
18 | COC(=O)c1ccc(N(C)S(=O)(=O)c2cc(C(=O)Nc3ccc4[nH]c(Cc5ccccc5)nc4c3)sc2Br)cc1 [Compound 35, methyl 4-((5-((2-benzyl-1H-benzo[d]imidazol-5-yl)carbamoyl)-2-bromo-N-methylthiophene)-3-sulfonamido)benzoate] | 33.3% | 4.45 µM | 8.69 | 38.7 µM
